In patent publication US20080312317A1 (Eisai R&D Management Co., Ltd., priority 2007, published 2008):

Tests used:
Assay type in all cases: cell-based
[1] = tested on: U937 human leukemia cell; assay: Proliferation inhibitory effect, Cell Titer-Glo viability assay, U937; details: U-937, 72 h, 3 days culture with compound, luciferase viability readout, read-out: IC50, concentration for 50% inhibition of cell growth
Experimental: (§1) WiDr human colon cancer cells cultured in RPMI1640 medium containing 10% fetal bovine serum, penicillin (100 unit/ml) and streptomycin (100 μg/ml) (SIGMA product) were seeded into a 96-well plate by 2×10^3 cells/90 μl/well. After culturing the cells overnight in a CO2 incubator, 10 μl of the compound (P15) which is diluted in series in 3-folds was added in each well above, and cultured for another 3 days. Then, 50 μl of Cell Titer-Glo Luminescent Cell Viability Assay (Promega product) was added thereto, cells were shaken for 2 minutes and allowed to stand for 15 minutes to allow reaction. After completing the reaction, luciferase activity was measured using the luminometer. The thus obtained measurement value was given as an index for the number of living cells in each well.
(§2) The same experiment as above was carried out, except that WiDr human colon cancer cell was changed to U937 human leukemia cell, KP4 human pancreatic cancer cell, MIApaca2 human pancreatic cancer cell, MDA-MB231 human breast cancer cell, MDA-MB435 human breast cancer cell, DU145 human prostate cancer cell, PC9 human lung cancer cell and OVCAR3 human ovarian cancer, respectively. The concentration (IC50 values) of the compound (P15) required for 50% inhibition of each cancer cell was determined. […]

[2] = tested on: MDA-MB435 human breast cancer cell; assay: Proliferation inhibitory effect, Cell Titer-Glo viability assay, MDA-MB435; details: MDA-MB-435, 72 h, 3 days culture with compound, luciferase viability readout, read-out: IC50, concentration for 50% inhibition of cell growth
Experimental: as §1, §2

[3] = tested on: KP4 human pancreatic cancer cell; assay: Proliferation inhibitory effect, Cell Titer-Glo viability assay, KP4; details: 72 h, 3 days culture with compound, luciferase viability readout, read-out: IC50, concentration for 50% inhibition of cell growth
Experimental: as §1, §2

[4] = tested on: DU145 human prostate cancer cell; assay: Proliferation inhibitory effect, Cell Titer-Glo viability assay, DU145; details: DU-145, 72 h, 3 days culture with compound, luciferase viability readout, read-out: IC50, concentration for 50% inhibition of cell growth
Experimental: as §1, §2

[5] = tested on: MDA-MB231 human breast cancer cell; assay: Proliferation inhibitory effect, Cell Titer-Glo viability assay, MDA-MB231; details: MDA-MB-231, 72 h, 3 days culture with compound, luciferase viability readout, read-out: IC50, concentration for 50% inhibition of cell growth
Experimental: as §1, §2

[6] = tested on: WiDr human colon cancer cell; assay: Proliferation inhibitory effect, Cell Titer-Glo viability assay, WiDr; details: 72 h, 3 days culture with compound, luciferase viability readout, read-out: IC50, concentration for 50% inhibition of cell growth
Experimental: as §1
The same experiment as in Test Example 1 was carried out, except that the compound (P15) was changed to the compound (P16). The concentration (IC50 value) of the compound (P16) required for 50% inhibition of WiDr human colon cancer cell growth was determined.

[7] = tested on: PC9 human lung cancer cell; assay: Proliferation inhibitory effect, Cell Titer-Glo viability assay, PC9; details: 72 h, 3 days culture with compound, luciferase viability readout, read-out: IC50, concentration for 50% inhibition of cell growth
Experimental: as §1, §2

[8] = tested on: OVCAR3 human ovarian cancer; assay: Proliferation inhibitory effect, Cell Titer-Glo viability assay, OVCAR3; details: OVCAR-3, 72 h, 3 days culture with compound, luciferase viability readout, read-out: IC50, concentration for 50% inhibition of cell growth
Experimental: as §1, §2

[9] = tested on: MIApaca2 human pancreatic cancer cell; assay: Proliferation inhibitory effect, Cell Titer-Glo viability assay, MIApaca2; details: MIA PaCa-2, 72 h, 3 days culture with compound, luciferase viability readout, read-out: IC50, concentration for 50% inhibition of cell growth
Experimental: as §1, §2

Structure (SMILES)	IC50 [1] [nM]	IC50 [2] [nM]	IC50 [3] [nM]	IC50 [4] [nM]	IC50 [5] [nM]	IC50 [6] [nM]	IC50 [7] [nM]	IC50 [8] [nM]	IC50 [9] [nM]
CC[C@H](O)[C@@H](C)[C@H]1O[C@@H]1C[C@@](C)(O)/C=C/C=C(\C)[C@H]1NC(=O)CCCCCC(OC(C)=O)/C=C/[C@@H]1C (stereo partly drawn) [Compound P15, (2S,3S,4E)-2-((1E,3E,5R)-5-hydroxy-6-{(2R,3R)-3-[(1R,2S)-2-hydroxy-1-methylbutyl]oxiran-2-yl}-1,5-dimethylhexa-1,3-dien-1-yl)-3-methyl-12-oxoazacyclododec-4-en-6-yl acetate]	550	1700	1300	2300	470	570	1400	430	500
CC[C@H](O)[C@@H](C)[C@H]1O[C@@H]1C[C@H](C)/C=C/C=C(\C)[C@H]1NC(=O)CCCCCC(OC(C)=O)/C=C/[C@@H]1C (stereo partly drawn) [Compound P16]	140	380	300	510	130	290	240	97	140
